Data set [1] addresses T1, human 5-HT1A receptor (Homo sapiens (Human), UniProt P08908). The experiment in a line: Test 1: binding activity for human 5-HT1A receptor ([3H]8-OH-DPAT, CHO cell membrane fraction). The essentials:
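Membranes incubated with [3H]8-OH-DPAT and compound for 60 min at room temperature, then filtered on polyethylenimine-coated glass-fibre plates and counted by liquid scintillation. IC50 from Hill analysis; Ki = IC50/(1+S/Kd), Kd from saturation binding on the same membranes.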

Data set [2] deals with T2, human 5-HT2A receptor (Homo sapiens (Human), UniProt P28223). The experiment in a line: Test 1: binding activity for human 5-HT2A receptor ([3H]Ketanserin, CHO cell membrane fraction). The essentials:
(§1)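 Compound displacement of [3H]ketanserin at 5-HT2A or [3H]spiperone at D2 was measured in CHO membrane fractions after 60 min at room temperature, with filtration and scintillation counting. IC50 was converted to Ki by Cheng–Prusoff using ligand concentration and Kd from saturation binding.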

The next data set deals with human D2 receptor (Homo sapiens (Human), UniProt P14416). The experiment in a line: Test 1: binding activity for human D2 receptor ([3H]Spiperone, CHO cell membrane fraction). As to conditions: for Ki: human D2 receptor, [3H]Spiperone; for D2 Ki/5-HT1A Ki / D2 Ki/5-HT2A Ki: selectivity ratio. A digest of the protocol: as §1
Data set [3] addresses T1, human 5-HT1A receptor. The experiment in a line: Test 2: agonist activity for human 5-HT1A receptor ([35S]GTPγS binding). It counts as biochemical. As to conditions: for EC50: [35S]GTPγS binding, concentration at which half the activity of Emax was obtained; for Emax at 10 µM: agonist activity in the presence of 10 μM of compound, relative to 100 μmol/L 5-HT. The essentials: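 [35S]GTPγS binding read-out: after 60 min at room temperature with test compound in GDP buffer, human 5-HT1A receptor CHO membranes were vacuum-filtered and retained radioactivity scintillation-counted. Agonist activity calculated by formula.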
On the technique in general: GTPγS resists hydrolysis and so accumulates on activated G proteins.

Data set [4] concerns the target T2, human 5-HT2A receptor. The experiment in a line: Test 3: antagonist activity for human 5-HT2A receptor (aequorin luminescence, CHO-K1 cells). As to conditions: CHO-K1 cells, 1 nmol/L 5-HT. It counts as cell-based. The essentials:
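CHO-K1 cells transiently co-expressing aequorin, Gα16 and receptor; compound in DMSO added and luminescence recorded on FDSS/μCELL.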

Data set [5] can be described thus: Test 4: metabolic stability test in human hepatic microsome. It is filed as in vitro ADME. As to conditions: 0.1 mg/mL microsome, 0.1 μmol/L compound, 37° C., 30 minutes. A digest of the protocol:
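LC-MS quantified remaining parent after 30 min, 37° C, in pH 7.4 25 mmol/L phosphate containing 0.1 mg/mL human hepatic microsomes, 3.2 mmol/L NADPH and 0.1 μmol/L test compound. Value given as −LN(residual ratio)/30/0.1, mL/min/mg protein.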

For another data set, the target named is hERG channel (Homo sapiens (Human), UniProt Q12809). The experiment in a line: Test 6-1: inhibitory activity for hERG channel (auto patch clamp, Qpatch). As to conditions: for hERG inhibition IC50 (nmol/L)/5-HT1A Ki (nmol/L): ratio of hERG IC50 to 5-HT1A Ki; for hERG inhibition IC50 (nmol/L)/5-HT2A Ki (nmol/L): ratio of hERG IC50 to 5-HT2A Ki; for IC50: whole cell auto patch clamp, hERG-CHO cells, read-out: hERG inhibition IC50. It counts as cell-based. A digest of the protocol:
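Whole-cell patch clamp on an automated system using CHO cells stably expressing human hERG (IKr); 15 s pulse interval. Four increasing compound concentrations applied cumulatively; mean peak tail current from last 3 stimulations per concentration used. IC50 from inhibition versus pre-compound current, fitted by Hill equation.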
On the technique in general: hERG is a cardiac potassium channel; its block is linked to QT prolongation.

From patent US10745401B2, “Condensed lactam derivative” (Sumitomo Dainippon Pharma Co., Ltd., priority 2018, dated 2020) come the findings set out here.

Molecules are shown by their SMILES.

As usually defined, the Ki is the dissociation constant of the complex between target and ligand, obtained from inhibition or displacement. High values mean lower affinity, low ones higher affinity. By EC50 is commonly meant the concentration giving half of the maximal effect. High values mean a need for much substance, low ones an effect from little substance. Broadly, the Emax is the size of the effect at its maximum, as opposed to the concentration needed. The term IC50 denotes the concentration that gives 50% inhibition.

T1 sequence (P08908 whole entry): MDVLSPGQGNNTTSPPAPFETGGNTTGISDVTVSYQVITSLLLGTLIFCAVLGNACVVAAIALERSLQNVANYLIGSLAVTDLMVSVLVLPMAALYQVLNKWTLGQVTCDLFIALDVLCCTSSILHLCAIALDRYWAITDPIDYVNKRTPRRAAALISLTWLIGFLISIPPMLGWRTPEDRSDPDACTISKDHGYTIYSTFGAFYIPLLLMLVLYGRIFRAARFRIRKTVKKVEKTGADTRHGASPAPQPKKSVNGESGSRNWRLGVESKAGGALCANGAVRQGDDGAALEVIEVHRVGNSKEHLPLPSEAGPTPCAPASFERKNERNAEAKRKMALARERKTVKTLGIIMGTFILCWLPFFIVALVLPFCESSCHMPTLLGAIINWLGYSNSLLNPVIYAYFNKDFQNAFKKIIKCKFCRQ
T2 sequence (P28223 whole entry): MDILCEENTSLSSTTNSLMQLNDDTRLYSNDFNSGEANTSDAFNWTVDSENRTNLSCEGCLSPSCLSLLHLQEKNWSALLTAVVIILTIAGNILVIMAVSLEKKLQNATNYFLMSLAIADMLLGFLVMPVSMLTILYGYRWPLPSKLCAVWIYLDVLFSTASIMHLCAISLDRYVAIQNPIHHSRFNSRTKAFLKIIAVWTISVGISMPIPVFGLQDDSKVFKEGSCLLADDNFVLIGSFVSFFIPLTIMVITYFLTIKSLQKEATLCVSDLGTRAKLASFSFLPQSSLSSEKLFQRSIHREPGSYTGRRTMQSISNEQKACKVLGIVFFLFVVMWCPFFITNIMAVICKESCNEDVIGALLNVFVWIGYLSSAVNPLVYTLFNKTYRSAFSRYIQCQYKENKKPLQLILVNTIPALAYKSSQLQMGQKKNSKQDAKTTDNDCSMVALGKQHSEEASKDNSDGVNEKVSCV
Chain of human D2 receptor (P14416 whole entry): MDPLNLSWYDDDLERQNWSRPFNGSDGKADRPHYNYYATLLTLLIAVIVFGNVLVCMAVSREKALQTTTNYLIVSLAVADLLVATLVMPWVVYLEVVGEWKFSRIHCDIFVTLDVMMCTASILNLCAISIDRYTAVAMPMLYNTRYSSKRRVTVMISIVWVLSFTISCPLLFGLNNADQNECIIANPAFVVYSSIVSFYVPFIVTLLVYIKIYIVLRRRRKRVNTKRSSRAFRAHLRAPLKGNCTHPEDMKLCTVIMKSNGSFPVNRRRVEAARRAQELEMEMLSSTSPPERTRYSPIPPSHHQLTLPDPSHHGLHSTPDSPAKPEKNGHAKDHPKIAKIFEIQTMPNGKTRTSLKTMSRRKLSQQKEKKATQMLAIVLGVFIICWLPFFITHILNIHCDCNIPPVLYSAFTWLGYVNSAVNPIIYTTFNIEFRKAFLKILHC
Chain of hERG channel (Q12809 whole entry): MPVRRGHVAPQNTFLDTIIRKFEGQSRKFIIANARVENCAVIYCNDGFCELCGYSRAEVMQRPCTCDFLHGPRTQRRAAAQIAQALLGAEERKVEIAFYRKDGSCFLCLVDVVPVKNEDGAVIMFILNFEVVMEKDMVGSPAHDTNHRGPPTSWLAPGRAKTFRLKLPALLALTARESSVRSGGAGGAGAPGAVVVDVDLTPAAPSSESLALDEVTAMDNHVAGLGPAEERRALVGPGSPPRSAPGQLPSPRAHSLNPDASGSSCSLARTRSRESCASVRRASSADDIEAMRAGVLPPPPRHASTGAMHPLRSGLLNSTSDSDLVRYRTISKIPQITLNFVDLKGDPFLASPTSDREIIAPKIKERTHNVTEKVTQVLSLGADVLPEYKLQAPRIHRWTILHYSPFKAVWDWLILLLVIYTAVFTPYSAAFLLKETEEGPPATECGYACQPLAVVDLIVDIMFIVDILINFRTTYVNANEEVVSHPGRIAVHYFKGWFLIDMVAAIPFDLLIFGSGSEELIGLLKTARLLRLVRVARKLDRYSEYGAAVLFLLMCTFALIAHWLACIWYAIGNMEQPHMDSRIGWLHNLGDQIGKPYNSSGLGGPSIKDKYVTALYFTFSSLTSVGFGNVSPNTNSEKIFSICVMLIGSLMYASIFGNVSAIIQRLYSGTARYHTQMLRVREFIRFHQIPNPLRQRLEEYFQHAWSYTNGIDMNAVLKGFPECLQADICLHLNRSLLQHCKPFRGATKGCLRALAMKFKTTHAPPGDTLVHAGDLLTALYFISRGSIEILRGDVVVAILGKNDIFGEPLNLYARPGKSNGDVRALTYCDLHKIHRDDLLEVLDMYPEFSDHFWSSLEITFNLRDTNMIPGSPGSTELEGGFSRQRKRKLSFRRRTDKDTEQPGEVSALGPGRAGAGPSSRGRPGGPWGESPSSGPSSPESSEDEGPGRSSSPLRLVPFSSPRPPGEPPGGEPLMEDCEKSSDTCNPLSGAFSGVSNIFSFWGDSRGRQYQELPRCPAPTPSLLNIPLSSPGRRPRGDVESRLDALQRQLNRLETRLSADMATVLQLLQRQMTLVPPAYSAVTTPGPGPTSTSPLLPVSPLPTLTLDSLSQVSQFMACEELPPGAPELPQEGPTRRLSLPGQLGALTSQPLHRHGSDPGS

`Cc1nc2c(o1)C(=O)N(CCN1CCC(c3noc4ccccc34)CC1)CC2` [Example 35, 5-{2-[4-(1,2-Benzoisoxazol-3-yl)piperidin-1-yl]ethyl}-2-methyl-6,7-dihydro[1,3]oxazolo[5,4-c]pyridin-4(5H)-one] returned an inhibition constant Ki at human 5-HT1A receptor [1] of 3.3 nM. Further, on human 5-HT2A receptor [2], the affinity, expressed as Ki, was 9.3 nM. For the same molecule, on human D2 receptor, the inhibition constant Ki was 1290 nM, the “D2 Ki/5-HT1A Ki” value worked out at 391 and the “D2 Ki/5-HT2A Ki” value was found to be 139. Besides, on human 5-HT1A receptor [3], the concentration giving a half-maximal response (EC50) stood at 72 nM and the Emax at 10 µM was 68%. On human 5-HT2A receptor [4], the IC50 turned out to be 74 nM. Further, the “Metabolic stability in human hepatic microsome” value (“Metabolic stability” below) in data set [5] is reported as below 0.01 mL/min/mg protein. Also, on hERG channel, the “hERG inhibition IC50 (nmol/L)/5-HT1A Ki (nmol/L)” value turned out to be 453, the “hERG inhibition IC50 (nmol/L)/5-HT2A Ki (nmol/L)” value is 161 and the concentration for half-maximal inhibition (IC50) was determined as 1500 nM.

In turn, `Cc1nc2c(o1)CCCN(CCN1CCC(c3noc4ccccc34)CC1)C2=O` [Example 157] had a Ki at human 5-HT1A receptor [1] of 2.12 nM. The same molecule returned a Ki at human 5-HT2A receptor [2] of 14.5 nM. At human D2 receptor, the inhibition constant Ki was determined as 641 nM, the “D2 Ki/5-HT1A Ki” value stood at 302.1 and the “D2 Ki/5-HT2A Ki” value was determined as 44.2. Moreover, at human 5-HT1A receptor [3], the EC50 turned out to be 52.7 nM and the maximal response (Emax) at 10 µM was 47%. Also, on human 5-HT2A receptor [4] (aequorin luminescence), the 50% inhibitory concentration (IC50) is 115 nM. Besides, the “Metabolic stability” value in data set [5] is below 0.05 mL/min/mg protein. Also, on hERG channel, the “hERG inhibition IC50 (nmol/L)/5-HT1A Ki (nmol/L)” value was 754, the “hERG inhibition IC50 (nmol/L)/5-HT2A Ki (nmol/L)” value was 110 and the IC50 is 1600 nM.

Molecule `Cc1ncc2c(n1)CCN(CCN1CCN(c3noc4ccccc34)CC1)C2=O` [Example 179] gave a Ki on human 5-HT1A receptor [1] of 283 nM. In addition, on human 5-HT2A receptor [2], the Ki was 22.9 nM. Further, at human D2 receptor, the inhibitory constant (Ki) was above 10000 nM, the “D2 Ki/5-HT1A Ki” value was above 35.3 and the “D2 Ki/5-HT2A Ki” value is listed as above 437.6. In addition, the IC50 at human 5-HT2A receptor [4] (aequorin luminescence) was determined as 70.8 nM. For the same molecule, the “Metabolic stability” value in data set [5] is on record as below 0.05 mL/min/mg protein. At hERG channel, the “hERG inhibition IC50 (nmol/L)/5-HT1A Ki (nmol/L)” value was above 35, the “hERG inhibition IC50 (nmol/L)/5-HT2A Ki (nmol/L)” value is given as above 438 and the IC50 was above 10000 nM.

On to `O=C1c2cnc(OC3COC3)cc2CCN1CCN1CCN(c2nsc3ccccc23)CC1` [Example 111, 2-{2-[4-(1,2-Benzoisothiazol-3-yl)piperazin-1-yl]ethyl}-6-[(oxetan-3-yl)oxy]-3,4-dihydro-2,7-naphthyridin-1(2H)-one], for which the inhibitory constant (Ki) at human 5-HT1A receptor [1] amounted to 0.91 nM. Besides, the Ki at human 5-HT2A receptor [2] is 1.9 nM. For the same molecule, on human D2 receptor, the affinity corresponds to a Ki of 1010 nM, the “D2 Ki/5-HT1A Ki” value worked out at 1105 and the “D2 Ki/5-HT2A Ki” value was determined as 530. In addition, at human 5-HT1A receptor [3], it took 4.58 nM to reach a half-maximal effect (EC50) and the maximal effect (Emax) at 10 µM came to 51%. Moreover, the IC50 against human 5-HT2A receptor [4] came out at 17 nM. Moreover, the “Metabolic stability” value in data set [5] amounted to 0.254 mL/min/mg protein. In addition, on hERG channel, the “hERG inhibition IC50 (nmol/L)/5-HT1A Ki (nmol/L)” value is given as 2052, the “hERG inhibition IC50 (nmol/L)/5-HT2A Ki (nmol/L)” value was determined as 984 and the IC50 came to 1900 nM.

As to `Cc1cncc2c1CCN(CCN1CCN(c3noc4ccccc34)CC1)C2=O` [Example 137], the inhibition constant (Ki) at human 5-HT1A receptor [1] amounted to 186 nM. On human 5-HT2A receptor [2], this molecule showed a Ki of 11.2 nM. Also, on human D2 receptor, the affinity corresponds to a Ki of 1080 nM, the “D2 Ki/5-HT1A Ki” value is listed as 5.8 and the “D2 Ki/5-HT2A Ki” value is on record as 96.4. Further, at human 5-HT1A receptor [3], the EC50 was found to be 4660 nM and the Emax at 10 µM stood at 19%. This molecule yielded a concentration for half-maximal inhibition (IC50) on human 5-HT2A receptor [4] (aequorin luminescence) of 2.4 nM. In addition, in data set [5], the “Metabolic stability” value was below 0.05 mL/min/mg protein. On hERG channel, the “hERG inhibition IC50 (nmol/L)/5-HT1A Ki (nmol/L)” value is 41, the “hERG inhibition IC50 (nmol/L)/5-HT2A Ki (nmol/L)” value stood at 686 and the IC50 was 7700 nM.

At human 5-HT1A receptor [1], `Cn1ncc2c1C(=O)N(CCN1CCC(c3noc4ccccc34)CC1)CC2` [Example 96, 6-{2-[4-(1,2-Benzoisoxazol-3-yl)piperidin-1-yl]ethyl}-1-methyl-1,4,5,6-tetrahydro-7H-pyrazolo[3,4-c]pyridin-7-one] had a Ki of 11.8 nM. The same molecule showed an inhibition constant Ki on human 5-HT2A receptor [2] of 7.25 nM. Moreover, on human D2 receptor, the Ki is 103 nM, the “D2 Ki/5-HT1A Ki” value was determined as 9 and the “D2 Ki/5-HT2A Ki” value worked out at 14. Further, on human 5-HT1A receptor [3], the EC50 stood at 65.5 nM and the Emax at 10 µM came out at 33%. In addition, at human 5-HT2A receptor [4], the IC50 was found to be 20 nM. For the same molecule, in data set [5], the “Metabolic stability” value is on record as 0.019 mL/min/mg protein. At hERG channel, the “hERG inhibition IC50 (nmol/L)/5-HT1A Ki (nmol/L)” value was determined as 97, the “hERG inhibition IC50 (nmol/L)/5-HT2A Ki (nmol/L)” value stood at 159 and the half-maximal inhibitory concentration (IC50) came to 1200 nM.
